Measurements published in patent US20240238242A1, “EGCG buccal tablet and use thereof” (priority 2023, published 2024).
Read-outs that look alike come from different tables or passages of the source.

Test system: Influenza A H1N1 virus (H1N1-PR8)
Assay type: cell-based
Settings: for average inactivation efficiency against virus: three experiments

O=C(O[C@@H]1Cc2c(O)cc(O)cc2O[C@@H]1c1cc(O)c(O)c(O)c1)c1cc(O)c(O)c(O)c1 [EGCG, Epigallocatechin gallate]
−: CPE test, virus replication in cell wells (wells 1-10) (0.2 mM EGCG + PR8 virus, 5 minutes, third experiment, dilution factor 10^7) | CPE test, virus replication in cell wells (wells 1-10) (0.2 mM EGCG + PR8 virus, 5 minutes, third experiment, dilution factor 10^8) | CPE test (virus replication in the cell wells) (0.2 mM EGCG + PR8 virus, co-incubated 1 minute, third experiment, dilution factor 10^8, wells 1-10) | CPE test (virus replication in the cell wells) (0.2 mM EGCG + virus, PR8, 1 minute, first experiment, dilution factor 10^8, wells 1-10) | CPE test (virus replication in the cell wells) (0.2 mM EGCG + virus, PR8, 1 minute, second experiment, dilution factor 10^7, wells 1-10) | CPE test (virus replication in the cell wells) (0.2 mM EGCG + virus, PR8, 1 minute, second experiment, dilution factor 10^8, wells 1-10) | CPE test, virus replication in cell wells (wells 1-10) (1 mM EGCG + PR8 virus, 5 minutes, third experiment, dilution factor 10^7) | CPE test, virus replication in cell wells (wells 1-10) (1 mM EGCG + PR8 virus, 5 minutes, third experiment, dilution factor 10^8) | CPE test (virus replication in the cell wells) (1 mM EGCG + PR8 virus, co-incubated 1 minute, third experiment, dilution factor 10^7, wells 1-10) | CPE test (virus replication in the cell wells) (1 mM EGCG + PR8 virus, co-incubated 1 minute, third experiment, dilution factor 10^8, wells 1-10)
− and +: CPE test, virus replication in cell wells (wells 1-10) (0.2 mM EGCG + PR8 virus, 5 minutes, third experiment, dilution factor 10^6) | CPE test (virus replication in the cell wells) (0.2 mM EGCG + PR8 virus, co-incubated 1 minute, third experiment, dilution factor 10^7, wells 1-10) | CPE test (virus replication in the cell wells) (0.2 mM EGCG + virus, PR8, 1 minute, first experiment, dilution factor 10^6, wells 1-10) | CPE test (virus replication in the cell wells) (0.2 mM EGCG + virus, PR8, 1 minute, first experiment, dilution factor 10^7, wells 1-10) | CPE test, virus replication in cell wells (wells 1-10) (1 mM EGCG + PR8 virus, 5 minutes, third experiment, dilution factor 10^6) | CPE test (virus replication in the cell wells) (1 mM EGCG + PR8 virus, co-incubated 1 minute, third experiment, dilution factor 10^6, wells 1-10)
+ and −: CPE test (virus replication in the cell wells) (0.2 mM EGCG + PR8 virus, co-incubated 1 minute, third experiment, dilution factor 10^6, wells 1-10) | CPE test (virus replication in the cell wells) (0.2 mM EGCG + virus, PR8, 1 minute, second experiment, dilution factor 10^6, wells 1-10) | CPE test (virus replication in the cell wells) (1 mM EGCG + PR8 virus, co-incubated 1 minute, third experiment, dilution factor 10^5, wells 1-10)
70.91%: average inactivation efficiency against virus (0.2 mM EGCG, PR8 virus, 5 minutes)
49.88%: average inactivation efficiency against virus (0.2 mM EGCG, PR8 virus, 1 minute)
84.15%: inactivation efficiency against the virus (0.2 mM EGCG, PR8 virus, 5 minutes, single experiment)
+: CPE test, virus replication in cell wells (wells 1-10) (0.2 mM EGCG + PR8 virus, 5 minutes, third experiment, dilution factor 10^1) | CPE test, virus replication in cell wells (wells 1-10) (0.2 mM EGCG + PR8 virus, 5 minutes, third experiment, dilution factor 10^2) | CPE test, virus replication in cell wells (wells 1-10) (0.2 mM EGCG + PR8 virus, 5 minutes, third experiment, dilution factor 10^3) | CPE test, virus replication in cell wells (wells 1-10) (0.2 mM EGCG + PR8 virus, 5 minutes, third experiment, dilution factor 10^4) | CPE test, virus replication in cell wells (wells 1-10) (0.2 mM EGCG + PR8 virus, 5 minutes, third experiment, dilution factor 10^5) | CPE test (virus replication in the cell wells) (0.2 mM EGCG + PR8 virus, co-incubated 1 minute, third experiment, dilution factor 10^1, wells 1-10) | CPE test (virus replication in the cell wells) (0.2 mM EGCG + PR8 virus, co-incubated 1 minute, third experiment, dilution factor 10^2, wells 1-10) | CPE test (virus replication in the cell wells) (0.2 mM EGCG + PR8 virus, co-incubated 1 minute, third experiment, dilution factor 10^3, wells 1-10) | CPE test (virus replication in the cell wells) (0.2 mM EGCG + PR8 virus, co-incubated 1 minute, third experiment, dilution factor 10^4, wells 1-10) | CPE test (virus replication in the cell wells) (0.2 mM EGCG + PR8 virus, co-incubated 1 minute, third experiment, dilution factor 10^5, wells 1-10) | CPE test (virus replication in the cell wells) (0.2 mM EGCG + virus, PR8, 1 minute, first experiment, dilution factor 10^1, wells 1-10) | CPE test (virus replication in the cell wells) (0.2 mM EGCG + virus, PR8, 1 minute, first experiment, dilution factor 10^2, wells 1-10) | CPE test (virus replication in the cell wells) (0.2 mM EGCG + virus, PR8, 1 minute, first experiment, dilution factor 10^3, wells 1-10) | CPE test (virus replication in the cell wells) (0.2 mM EGCG + virus, PR8, 1 minute, first experiment, dilution factor 10^4, wells 1-10) | CPE test (virus replication in the cell wells) (0.2 mM EGCG + virus, PR8, 1 minute, first experiment, dilution factor 10^5, wells 1-10) | CPE test (virus replication in the cell wells) (0.2 mM EGCG + virus, PR8, 1 minute, second experiment, dilution factor 10^1, wells 1-10) | CPE test (virus replication in the cell wells) (0.2 mM EGCG + virus, PR8, 1 minute, second experiment, dilution factor 10^2, wells 1-10) | CPE test (virus replication in the cell wells) (0.2 mM EGCG + virus, PR8, 1 minute, second experiment, dilution factor 10^3, wells 1-10) | CPE test (virus replication in the cell wells) (0.2 mM EGCG + virus, PR8, 1 minute, second experiment, dilution factor 10^4, wells 1-10) | CPE test (virus replication in the cell wells) (0.2 mM EGCG + virus, PR8, 1 minute, second experiment, dilution factor 10^5, wells 1-10) | CPE test, virus replication in cell wells (wells 1-10) (1 mM EGCG + PR8 virus, 5 minutes, third experiment, dilution factor 10^3) | CPE test, virus replication in cell wells (wells 1-10) (1 mM EGCG + PR8 virus, 5 minutes, third experiment, dilution factor 10^4) | CPE test, virus replication in cell wells (wells 1-10) (1 mM EGCG + PR8 virus, 5 minutes, third experiment, dilution factor 10^5) | CPE test (virus replication in the cell wells) (1 mM EGCG + PR8 virus, co-incubated 1 minute, third experiment, dilution factor 10^3, wells 1-10) | CPE test (virus replication in the cell wells) (1 mM EGCG + PR8 virus, co-incubated 1 minute, third experiment, dilution factor 10^4, wells 1-10) | CPE test (virus replication in the cell wells) (1 mM EGCG + PR8 virus, co-incubated 5 minutes, first experiment, dilution factor 10^3, wells 1-10) | CPE test (virus replication in the cell wells) (1 mM EGCG + PR8 virus, co-incubated 5 minutes, first experiment, dilution factor 10^4, wells 1-10)
